# According to patent publication US20150315188A1, “COMPOUNDS AND METHODS FOR TREATMENT OF HYPERTENSION” (MEDIVATION TECHNOLOGIES, INC., priority 2012, published 2015):
# Columns and labels:
# Design in all cases: purchased Milipore (Millipore)
# [1] = target: T1, Human adrenergic α2A receptor (Homo sapiens, UniProt P08913); assay: Radioligand binding, adrenergic α2A (Protocol Group B); settings: Protocol Group B; for Percentage inhibition of ligand binding, Adrenergic α2A (0.3 μM) / inhibition at 0.3 µM: 0.3 μM compound; for inhibition at 0.3 µM: read-out: Percentage inhibition of ligand binding, Adrenergic α2A (0.3 μM)
# T1 sequence (P08913 1-465): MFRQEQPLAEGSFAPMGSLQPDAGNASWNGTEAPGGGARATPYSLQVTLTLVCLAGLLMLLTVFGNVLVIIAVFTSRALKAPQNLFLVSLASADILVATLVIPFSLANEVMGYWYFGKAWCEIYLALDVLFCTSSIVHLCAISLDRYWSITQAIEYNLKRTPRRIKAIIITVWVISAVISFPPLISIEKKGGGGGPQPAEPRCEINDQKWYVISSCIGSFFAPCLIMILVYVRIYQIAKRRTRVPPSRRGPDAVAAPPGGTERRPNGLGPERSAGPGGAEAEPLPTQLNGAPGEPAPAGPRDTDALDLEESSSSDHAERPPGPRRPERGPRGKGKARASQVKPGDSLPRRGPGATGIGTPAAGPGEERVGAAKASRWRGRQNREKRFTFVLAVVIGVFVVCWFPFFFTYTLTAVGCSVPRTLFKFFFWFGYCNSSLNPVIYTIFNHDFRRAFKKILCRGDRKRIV
# Summary of the method: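 Compounds (1% DMSO vehicle, various concentrations) competed against 2 nM [^3H]MK-912 on recombinant receptor membranes for 60 min at 25° C, Tris-HCl pH 7.4 buffer with Mg2+, Ca2+, BSA. Bound radioligand filtered and counted; 10 μM rauwolscine set nonspecific binding. Values: percent inhibition of specific binding or estimated Ki.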
# [2] = target: T2, Human adrenergic α2B receptor (Homo sapiens, UniProt P18089); assay: Radioligand binding, adrenergic α2B (Protocol Group B); settings: Protocol Group B; for Percentage inhibition of ligand binding, Adrenergic α2B (10 nM): 0.01 µM; for Percentage inhibition of ligand binding, Adrenergic α2B (30 nM): 0.03 µM; for Percentage inhibition of ligand binding, Adrenergic α2B (0.1 μM) / inhibition at 0.1 µM: 0.1 μM compound; for inhibition at 0.1 µM: read-out: Percentage inhibition of ligand binding, Adrenergic α2B (0.1 μM)
# T2 sequence (P18089 1-450): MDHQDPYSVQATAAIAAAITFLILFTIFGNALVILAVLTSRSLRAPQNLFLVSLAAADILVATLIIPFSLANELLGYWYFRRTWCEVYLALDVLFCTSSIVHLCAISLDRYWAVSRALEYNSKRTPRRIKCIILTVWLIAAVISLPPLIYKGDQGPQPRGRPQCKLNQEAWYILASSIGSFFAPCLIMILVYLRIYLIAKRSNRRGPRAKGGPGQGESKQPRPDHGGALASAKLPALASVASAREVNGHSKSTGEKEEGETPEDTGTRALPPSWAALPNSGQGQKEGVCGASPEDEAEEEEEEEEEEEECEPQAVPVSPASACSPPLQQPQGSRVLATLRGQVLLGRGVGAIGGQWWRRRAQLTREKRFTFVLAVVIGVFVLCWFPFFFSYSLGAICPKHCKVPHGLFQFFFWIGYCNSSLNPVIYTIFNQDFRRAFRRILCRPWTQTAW
# Summary of the method: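 Compounds at various concentrations in 1% DMSO were tested on recombinant membranes in Tris-HCl pH 7.4 buffer containing MgCl2, CaCl2 and 0.2% BSA.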
# [3] = target: T3, Human adrenergic α1B receptor (Homo sapiens, UniProt P35368); assay: Radioligand binding, adrenergic α1B (Protocol Group B); settings: Protocol Group B; for Percentage inhibition of ligand binding, Adrenergic α1B (0.3 μM) / inhibition at 0.3 µM: 0.3 μM compound; for inhibition at 0.3 µM: read-out: Percentage inhibition of ligand binding, Adrenergic α1B (0.3 μM)
# T3 sequence (P35368 1-520): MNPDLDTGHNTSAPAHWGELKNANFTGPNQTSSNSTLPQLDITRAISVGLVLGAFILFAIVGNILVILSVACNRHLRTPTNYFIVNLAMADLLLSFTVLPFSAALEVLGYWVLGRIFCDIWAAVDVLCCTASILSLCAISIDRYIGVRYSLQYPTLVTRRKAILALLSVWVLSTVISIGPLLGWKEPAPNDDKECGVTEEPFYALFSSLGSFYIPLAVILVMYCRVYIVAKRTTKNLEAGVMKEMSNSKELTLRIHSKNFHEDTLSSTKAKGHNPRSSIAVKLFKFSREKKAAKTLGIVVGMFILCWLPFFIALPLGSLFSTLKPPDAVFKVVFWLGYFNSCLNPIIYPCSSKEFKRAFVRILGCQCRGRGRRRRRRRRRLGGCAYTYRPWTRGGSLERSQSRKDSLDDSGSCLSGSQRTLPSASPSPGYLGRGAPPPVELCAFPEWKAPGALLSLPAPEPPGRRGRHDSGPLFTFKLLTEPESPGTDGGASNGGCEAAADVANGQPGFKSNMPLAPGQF
# Summary of the method: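 Values are percent inhibition of specific [3H]prazosin (0.3 nM) binding or estimated Ki, from filtration counting. Human α1B recombinant membranes, Tris-HCl pH 7.4 buffer with MgCl2 and EDTA, 60 min at 25 °C, 1% DMSO vehicle; 10 μM prazosin defined nonspecific binding.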
"Percentage inhibition of ligand binding, Adrenergic α2A (0.1 μM) ([1]; 0.1 μM compound) [%]","Percentage inhibition of ligand binding, Adrenergic α2A (0.3 μM) [1] [%]","Percentage inhibition of ligand binding, Adrenergic α2B (10 nM) ([2]; 10 nM compound) [%]","Percentage inhibition of ligand binding, Adrenergic α2B (30 nM) ([2]; 30 nM compound) [%]","Percentage inhibition of ligand binding, Adrenergic α1B (0.1 μM) ([3]; 0.1 μM compound) [%]","Percentage inhibition of ligand binding, Adrenergic α1B (0.3 μM) [3] [%]","Percentage inhibition of ligand binding, Adrenergic α2B (0.1 μM) [2] [%]",inhibition at 0.3 µM [1] [%],inhibition at 0.1 µM [2] [%],inhibition at 0.3 µM [3] [%],"inhibition at 0.1 µM ([1]; 0.1 μM compound, read-out: Percentage inhibition of ligand binding, Adrenergic α2A (0.1 μM)) [%]","inhibition at 0.01 µM ([2]; 10 nM compound, read-out: Percentage inhibition of ligand binding, Adrenergic α2B (10 nM)) [%]","inhibition at 0.03 µM ([2]; 30 nM compound, read-out: Percentage inhibition of ligand binding, Adrenergic α2B (30 nM)) [%]","inhibition at 0.1 µM ([3]; 0.1 μM compound, read-out: Percentage inhibition of ligand binding, Adrenergic α1B (0.1 μM)) [%]",SMILES
−14,−3,−16,−4,−20,−7,–,–,–,–,–,–,–,–,"Cc1cc(Cl)c2c(c1)c1c(n2CC(C)(O)c2ccncc2)CCN2CCCC12 (single isomer, unassigned) [91c]"
−16,−5,−14,−14,−11,−4,−2,–,–,–,–,–,–,–,Cc1ccc2c(c1)c1c(n2CC(C)(O)c2cccnc2)CC2CCCN2C1 (stereo not shown) [41b]
–,–,–,–,–,–,–,19,74,3,5,19,44,-6,"Cc1ccc2c(c1)c1c(n2CC(C)(O)c2cnccc2F)CCN(C)C1 (stereo not shown) [compound 40, 1-(2,8-dimethyl-3,4-dihydro-1H-pyrido[4,3-b]indol-5(2H)-yl)-2-(4-fluoropyridin-3-yl)propan-2-ol]"
−11,−7,−1,−1,2,12,5,–,–,–,–,–,–,–,"Cc1cc(F)cc2c3c(n(CC(C)(O)c4ccncc4)c12)CC1CCCN1C3 (single isomer, unassigned) [78a]"
−12,−11,−7,0,−4,−4,14,–,–,–,–,–,–,–,CC(O)(Cn1c2c(c3cc(F)ccc31)C1CCCN1CC2)c1cccnc1 (stereo not shown) [57a]
7,–,–,40,29,–,–,–,–,–,–,–,–,–,"Cc1ccc2c(c1)c1c(n2CC(C)(O)c2ccc(F)cc2)CN2CCC1C2 (single isomer, unassigned) [134b]"
0,–,–,−9,4,–,–,–,–,–,–,–,–,–,"Cc1ccc2c(c1)c1c(n2CC(OCC2CCC2)c2ccncc2)CCN2CCCC12 (single isomer, unassigned) [138c]"

# Second part, the molecule before the results:
SMILES,"Percentage inhibition of ligand binding, Adrenergic α2A (0.1 μM) ([1]; 0.1 μM compound) [%]","Percentage inhibition of ligand binding, Adrenergic α2A (0.3 μM) [1] [%]","Percentage inhibition of ligand binding, Adrenergic α2B (10 nM) ([2]; 10 nM compound) [%]","Percentage inhibition of ligand binding, Adrenergic α2B (30 nM) ([2]; 30 nM compound) [%]","Percentage inhibition of ligand binding, Adrenergic α1B (0.1 μM) ([3]; 0.1 μM compound) [%]","Percentage inhibition of ligand binding, Adrenergic α1B (0.3 μM) [3] [%]","Percentage inhibition of ligand binding, Adrenergic α2B (0.1 μM) [2] [%]",inhibition at 0.3 µM [1] [%],inhibition at 0.1 µM [2] [%],inhibition at 0.3 µM [3] [%],"inhibition at 0.1 µM ([1]; 0.1 μM compound, read-out: Percentage inhibition of ligand binding, Adrenergic α2A (0.1 μM)) [%]","inhibition at 0.01 µM ([2]; 10 nM compound, read-out: Percentage inhibition of ligand binding, Adrenergic α2B (10 nM)) [%]","inhibition at 0.03 µM ([2]; 30 nM compound, read-out: Percentage inhibition of ligand binding, Adrenergic α2B (30 nM)) [%]","inhibition at 0.1 µM ([3]; 0.1 μM compound, read-out: Percentage inhibition of ligand binding, Adrenergic α1B (0.1 μM)) [%]"
"Cc1ccc2c(c1)c1c(n2CC(C)(O)c2ccc(N(C)C)nc2)CCN(C)C1 (single isomer, unassigned) [39b]",6,5,5,20,10,10,32,–,–,–,–,–,–,–
"Cc1cc(F)c2c(c1)c1c(n2CC(C)(O)c2ccncc2)CCN2CCCC12 (single isomer, unassigned) [81c]",3,–,−2,0,2,–,–,8,17,11,–,–,–,–
"CN1CCc2c(c3cc(CCO)ccc3n2CC(C)(O)c2cccnc2)C1 (single isomer, unassigned) [139a]",7,–,–,31,9,–,–,–,–,–,–,–,–,–
"Cc1ccc2c(c1)c1c(n2CC(C)(O)c2cncc(F)c2)CCN(C)C1 (single isomer, unassigned) [46a]",20,35,33,60,6,27,82,–,–,–,–,–,–,–
"Cc1cc(F)c2c(c1)c1c(n2CC(C)(O)c2ccncc2)CC2CCCN2C1 (single isomer, unassigned) [62d]",11,25,21,57,12,27,82,–,–,–,–,–,–,–
"Cc1cc2c3c(n(CC(C)(O)c4ccncc4)c2cc1Cl)CCN1CCCC31 (single isomer, unassigned) [50d]",−9,−4,−8,−2,−8,4,13,–,–,–,–,–,–,–
"Cc1ccc2c(c1)c1c(n2CC(C)(O)c2ccc(F)cc2)CC2CCC1N2C (single isomer, unassigned) [102d]",−8,4,−8,6,−1,−5,−8,–,–,–,–,–,–,–
